Results reported in patent publication US6090787A, “Antithrombotic agents” (Eli Lilly and Company, priority 1999, dated 2000).
Square brackets hold non-standard residues; d marks the D form. Peptide text beside a SMILES is read from it. dPip = O=C(O)[C@H]1CCCCN1; Sar = CNCC(=O)O

What was measured:
human thrombin = target: T1, human thrombin (Homo sapiens, UniProt P00734); test: Inhibition of amidase activity of thrombin (Kass), chromogenic substrate; assay type: biochemical; conditions: apparent association constant, mean over a range of concentrations
T1 construct: purified human thrombin, Enzyme Research Laboratories; purchased Enzyme Research Laboratories, South Bend, Indiana
Description: The assay is carried out by mixing 50 μL buffer (0.03 M Tris, 0.15 M NaCl, pH 7.4) with 25 μL of bovine thrombin or human thrombin solution (0.21 mg/mL of thrombostat bovine thrombin, Parke-Davis, or purified human thrombin, Enzyme Research Laboratories, South Bend, Indiana, at about 8 NIH units/mL, in the same buffer) and 25 μL of test compound in a solvent (in 50% aqueous methanol, v:v). The 150 μL of an aqueous solution of the chromogenic substrate (at 0.25 mg/mL) are added and the rates of hydrolysis of the substrate are measured by monitoring the reactions at 405 nm for the release of p-nitroaniline. Standard curves are constructed by plotting free thrombin concentration against hydrolysis rate. The hydrolysis rates observed with test compounds are then converted to "free thrombin" values in the respective assays by use of the standard curves. The bound thrombin (bound to test compound) is calculated by subtracting the amount of free thrombin observed in each assay from the known initial amount of thrombin used in the assay. The amount of free inhibitor in each assay is calculated by subtracting the number of moles of bound thrombin from the number of moles of added inhibitor (test compound).
The Kass value is the hypothetical equilibrium constant for the reaction between thrombin and the test compound (I). [formula]
Kass is calculated for a range of concentrations of test compounds and the mean value is reported in units of liter per mole.

[1] = Index of bioavailability (% Relative Activity from plasma TT AUC, oral vs i.v.); assay type: in vivo; conditions: dose-adjusted AUC of plasma TT time course, p.o. vs i.v. bolus
Description: Plasma thrombin time (TT) and activated partial thromboplastin time (APTT) are measured with a fibrometer. Blood is sampled from a jugular catheter and collected in syringe containing sodium citrate (3.8%, 1 part to 9 parts blood). […] Parke Davis) at 37° C. For APTT, plasma (0.1 mL) and APTT solution (0.1 mL, Organon Teknika) are incubated for 5 minutes (37° C.) and CaCl2 (0.01 mL, 0.025 M) is added to start coagulation. Assays are done in duplicate and averaged. A measure of bioactivity, plasma thrombin time (TT), served as a substitute for the assay of parent compound on the assumption that increments in TT resulted from thrombin inhibition by parent only. The time course of the effect of the thrombin inhibitor upon TT is determined after i.v. bolus administration to anesthetized rats and after oral treatment of fasted conscious rats. Due to limitations of blood volume and the number of points required to determine the time course from time of treatment to the time when the response returned to pretreatment values, two populations of rats are used. Each sample population represented alternating sequential time points. The average TT over the time course is used to calculate area under the curve (AUC). The index of bioavailability is calculated by the formula shown below and is expressed as percent relative activity. The area under the curve (AUC) of the plasma TT time course is determined and adjusted for the dose. This index of bioavailability is termed "% Relative Activity" and is calculated as [formula] Compound solutions are prepared fresh daily in normal saline and are injected as a bolus or are infused starting 15 minutes before and continuing throughout the experimental perturbation which is 15 minutes in the arteriovenous shunt model and 60 minutes in the FeCl3 model of arterial injury and in the spontaneous thombosis model. Bolus injection volume is 1 mL/kg for i.v., and 5 mL/kg for p.o. and infusion volume is 3 mL/hr.

factor Xa = target: T2, factor Xa (Homo sapiens, UniProt P00742); test: Serine protease selectivity, Kass, factor Xa chromogenic assay; assay type: biochemical; conditions: apparent association constant
T2 construct: Human factors X, Xa, IXa, XIa, and XIIa are purchased from Enzyme Research Laboratories; purchased Enzyme Research Laboratories, South Bend, Ind
Description: By substantially following the procedures described above for human thrombin, and using other human blood coagulation system serine proteases and proteases of the fibrinolytic system with the appropriate chromogenic substrates, identified below, selectivity of the compounds of the present invention with respect to the coagulation factor serine proteases and with respect to the fibrinolytic system serine proteases are evaluated as well as their substantial lack of interference with serine proteases of the fibrinolytic system. Thrombin inhibitors preferably should spare fibrinolysis induced by urokinase, tissue plasminogen activator (t-PA) and streptokinase. This would be important to the therapeutic use of such agents as an adjunct to streptokinase, t-PA or urokinase thrombolytic therapy and to the use of such agents as an endogenous fibrinolysis-sparing (with respect to t-PA and urokinase) antithrombotic agent. In addition to the lack of interference with the amidase activity of the fibrinolytic proteases, such fibrinolytic system sparing can be studied by the use of human plasma clots and their lysis by the respective fibrinolytic plasminogen activators.
Human factors X, Xa, IXa, XIa, and XIIa are purchased from Enzyme Research Laboratories, South Bend, Ind.; human urokinase from Leo Pharmaceuticals, Denmark; and recombinant activated Protein C (aPC) is prepared at Eli Lilly and Co. substantially according to U.S. Pat. No. 4,981,952 incorporated by reference herein in its entirety. Chromogenic substrates: N--Benzoyl--Ile--Glu--Gly--Arg--p--nitroanilide (for factor Xa); N--Cbz--D--Arg--Gly--Arg--p--nitroanilide (for factor IXa assay as the factor Xa substrate); Pyroglutamyl--Pro--Arg--p--nitroanilide (for Factor XIa and for aPC); H--D--Pro--Phe--Arg--p--nitroanilide (for factor XIIa); and Pyroglutamyl--Gly--Arg--p--nitroanilide (for urokinase); are purchased from KabiVitrum, Stockholm, Sweden, or from Midwest Biotech, Fishers, Indiana. Bovine trypsin is purchased from Worthington Biochemicals, Freehold, N.J., and human plasma kallikrein from Kabi Vitrum, Stockholm, Sweden. Chromogenic substrate H--D--Pro--Phe--Arg--p--nitroanilide for plasma kallikrein is purchased from Kabi Vitrum, Stockholm, Sweden. N--Benzoyl--Phe--Val--Arg--p--nitroanilide, the substrate for human thrombin and for trypsin, is synthesized according to procedures described above for the compounds of the present invention, using known methods of peptide coupling from commercially available reactants or purchased from Midwest Biotech, Fishers, Ind.

T2 sequence (P00742 235-488 limits assumed): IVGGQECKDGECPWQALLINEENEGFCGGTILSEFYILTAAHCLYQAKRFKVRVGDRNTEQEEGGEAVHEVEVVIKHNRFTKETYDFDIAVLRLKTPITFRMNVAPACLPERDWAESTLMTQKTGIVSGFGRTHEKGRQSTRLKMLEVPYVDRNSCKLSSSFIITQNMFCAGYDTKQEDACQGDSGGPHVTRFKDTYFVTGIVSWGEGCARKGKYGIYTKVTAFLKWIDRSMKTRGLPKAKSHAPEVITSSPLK
T2 sequence (P00742 41-179 partner limits assumed): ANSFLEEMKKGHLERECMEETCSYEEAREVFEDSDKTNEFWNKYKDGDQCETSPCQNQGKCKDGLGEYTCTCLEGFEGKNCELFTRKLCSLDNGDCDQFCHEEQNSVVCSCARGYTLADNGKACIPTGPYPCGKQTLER

Row | SMILES | Enzyme Kass Human Thrombin (human thrombin) [L/mol × 10^6] | % oral/i.v. activity (Rat) [1] [%] | Enzyme Kass Xa (factor Xa) [L/mol × 10^6]
1 | CN(CC(=O)N[C@H](C=O)CCCNC(=N)N)C(=O)[C@H]1CCCCN1.Cl.Cl [Example 1, D-homoprolyl-N-methylglycyl-L-argininal dihydrochloride] (H-[dPip]-[Sar]-Arg-aldehyde) | 22 | 37 | 0.13
2 | CC(C)CCN(CC(=O)N[C@H](C=O)CCCN=C(N)N)C(=O)[C@H]1CCCCN1.Cl.Cl [Example 6, D--hPro--N(isoamyl)Gly--ArgH.2HCl] | 16 | 22 | 0.071
3 | Cl.Cl.N=C(N)NCCC[C@@H](C=O)NC(=O)CN(CCc1ccccc1)C(=O)[C@H]1CCCCN1 [Example 8, D-homoprolyl-N-(2-phenylethyl)glycyl-L-argininal dihydrochloride] | 87 | 17 | 4.4
